In patent publication US9399646B2 (Genentech, Inc., priority 2010, dated 2016):

Key:
MCF-7 cells = assay: Breast cancer cell viability assay (CellTiter-Glo, 5 days); assay type: cell-based; details: 5 days' compound exposure; for IC50: Homo sapiens, MCF7, 120 h
Experimental: MCF-7 cells were adjusted to a concentration of 20,000 cells per mL in RPMI containing 10% FBS and 20 mM HEPES. 16 microliters of the cell suspension (320 cells) was added to each well of a 384 well plate, and the cells were incubated overnight to allow the cells to adhere. The following day an eleven point, serial semilog dilution of each compound was added to the cells in 16 μL at a final concentration ranging from 0.3-0.000003 μM. After 5 days' compound exposure, 16 μL of CellTiter-GLo (Promega, Madison Wis.) was added to the cells the relative luminescence units (RLUs) of each well was determined CellTiter-Glo added to 32 μL of medium without cells was used to obtain a background value. The Percent viability of each sample was determined as follows: (RLU sample-RLU background/RLU untreated cells-RLU background)×100=% viability.

ER-α in MCF-7 cells = biological target: T1, ER-α in MCF-7 cells (Homo sapiens, UniProt P03372); assay: Breast cancer cell ER-α in cell western assay (SP1); assay type: cell-based; design: endogenous in cells; host or cells: MCF-7; details: 4 or 24 hr post compound addition; for Emax: MCF7, SP1 antibody, read-out: ER-α In Cell Western Assay (SP1) Max Response; for DC50: SP1 antibody, read-out: ER-α In Cell Western Assay (SP1) IC50
T1 sequence (P03372 1-595): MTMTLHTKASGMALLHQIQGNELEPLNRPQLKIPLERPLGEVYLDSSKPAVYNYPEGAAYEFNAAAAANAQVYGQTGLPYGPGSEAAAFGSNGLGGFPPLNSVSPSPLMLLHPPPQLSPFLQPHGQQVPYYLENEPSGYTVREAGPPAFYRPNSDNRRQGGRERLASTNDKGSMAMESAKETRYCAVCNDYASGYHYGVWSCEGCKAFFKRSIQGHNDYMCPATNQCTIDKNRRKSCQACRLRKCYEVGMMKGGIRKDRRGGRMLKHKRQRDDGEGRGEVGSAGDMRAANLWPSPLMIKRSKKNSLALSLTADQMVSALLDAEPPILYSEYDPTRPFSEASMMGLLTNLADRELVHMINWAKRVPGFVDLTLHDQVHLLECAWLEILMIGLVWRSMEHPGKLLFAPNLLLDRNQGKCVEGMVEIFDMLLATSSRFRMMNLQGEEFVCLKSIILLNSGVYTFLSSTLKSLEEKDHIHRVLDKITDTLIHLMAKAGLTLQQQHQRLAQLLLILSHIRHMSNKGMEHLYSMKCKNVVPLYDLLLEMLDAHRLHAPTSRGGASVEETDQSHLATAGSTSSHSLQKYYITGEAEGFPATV
Experimental: MCF-7 cells were adjusted to a concentration of 200,000 cells per mL in RPMI containing 10% charcoal-stripped FBS and 20 mM HEPES. 16 microliters of the cell suspension (3200 cells) was added to each well of a poly-D-lysine 384 well plate, and the cells were incubated overnight to allow the cells to adhere. The following day an eleven point, serial semilog dilution of each compound was added to the cells in 16 μL at a final concentration ranging from 0.3-0.000003 μM. At 4 or 24 hr post compound addition, the cells were fixed (10% formalin in PBS) for 20 minutes. Cells were permeablized in PBS 0.1% Triton and blocked with LICOR blocking buffer (50 μl/well, 90°). The wells were then incubated overnight at 4° C. with SP1 rabbit monoclonal Ab (Thermo Scientific) diluted 1:1000 in LICOR blocking buffer/0.1% Tween-20. Wells which were treated with blocking buffer with Tween but no antibody were used as a background control. Wells were washed with 0.1% Tween-20/PBS and then incubated in goat anti-rabbit IRDye™ 800CW (LICOR Inc.; 1:1000) and DRAQ5 DNA dye (1:2000 for 2 mM stock) diluted in LICOR blocking buffer containing 0.1% Tween-20 and 0.01% SDS for 60 minutes. Cells were washed (50 μl/well, 5′ each) in 0.1% Tween-20/PBS. Plates were scanned on a LICOR Odyssey infrared imaging system. Integrated intensities in the 800 nm channel and 700 nm channel were measured to determine levels of ER and DNA respectively. Percent ER levels were determined as follows: (Integrated intensity 800 nm sample/integrated intensity 700 nm sample)/(Integrated intensity 800 nm untreated cells/integrated intensity 700 nm untreated cells)×100=% ER levels.

IC50 (MCF-7 cells) [µM]	Emax (ER-α in MCF-7 cells) [%]	DC50 (ER-α in MCF-7 cells) [µM]	Structure (SMILES)	MCF7 Viability Assay Max Response (MCF-7 cells)
≤ 0.1	≥ 40	≤ 0.1	CC/C(=C(/c1ccc(/C=C/C(=O)O)cc1)c1ccc2[nH]ncc2c1)c1ccc2scnc2c1 [Compound 255, (E)-3-(4-((E)-2-(Benzo[d]thiazol-5-yl)-1-(1H-indazol-5-yl)but-1-en-1-yl)phenyl)acrylic acid]	++ (++ = a single % value ≧ 40%)
≤ 0.1	≥ 40	≤ 0.1	O=C(/C=C/c1ccc(/C(=C(\c2ccccc2)C2CCC2)c2ccc3[nH]nc(F)c3c2)cc1)NCCO [Compound 414, (E)-3-(4-((E)-2-Cyclobutyl-1-(3-fluoro-1H-indazol-5-yl)-2-phenylvinyl)phenyl)-N-(2-hydroxyethyl)acrylamide]	++ (++ = a single % value ≧ 40%)
≤ 0.1	≥ 40	≤ 0.1	CC/C(=C(/c1ccc2cc(C(=O)O)ccc2c1)c1ccc2[nH]ncc2c1)c1ccccc1 [Compound 449, (E)-6-(1-(1H-Indazol-5-yl)-2-phenylbut-1-en-1-yl)-2-naphthoic acid]	++ (++ = a single % value ≧ 40%)
> 0.1	≥ 40	> 0.1	CC/C(=C(/c1ccc(/C=C/C(=O)O)cc1)c1ccc2c(c1)C(=O)NC2)c1ccccc1 [Compound 104, (E)-3-(4-((E)-1-(3-Oxoisoindolin-5-yl)-2-phenylbut-1-en-1-yl)phenyl)acrylic acid]	++ (++ = a single % value ≧ 40%)
≤ 0.1	≥ 40	> 0.1	CC/C(=C(/c1ccc(/C=C/C(=O)O)cc1)c1ccc2c(=O)[nH]ccc2c1)c1ccccc1 [Compound 97, (E)-3-(4-((E)-1-(1-Oxo-1,2-dihydroisoquinolin-6-yl)-2-phenylbut-1-en-1-yl)phenyl)acrylic acid]	++ (++ = a single % value ≧ 40%)
≤ 0.1	≥ 40	≤ 0.1	CC/C(=C(/c1ccc(/C=C/C(=O)O)cc1)c1ccc2[nH]ncc2c1)c1ccccc1Oc1ccccc1 [Compound 147, (E)-3-(4-((E)-1-(1H-Indazol-5-yl)-2-(2-phenoxyphenyl)but-1-en-1-yl)phenyl)acrylic acid]	++ (++ = a single % value ≧ 40%)
≤ 0.1	≥ 40	≤ 0.1	CC/C(=C(/c1ccc(/C=C/C(=O)NC)cc1)c1ccc2scnc2c1)c1ccccc1 [Compound 427, (E)-3-(4-((E)-1-(Benzo[d]thiazol-5-yl)-2-phenylbut-1-en-1-yl)phenyl)-N-methylacrylamide]	++ (++ = a single % value ≧ 40%)
> 0.1	≥ 40	> 0.1	CC/C(=C(/c1ccc(/C=C/C(=O)O)cc1)c1ccc2[nH]ncc2c1)c1ccc(-n2cccn2)cc1 [Compound 264, (E)-3-(4-((E)-2-(4-(1H-Pyrazol-1-yl)phenyl)-1-(1H-indazol-5-yl)but-1-en-1-yl)phenyl)acrylic acid]	++ (++ = a single % value ≧ 40%)
≤ 0.1	≥ 40	≤ 0.1	CC/C(=C(/c1ccc(/C=C/C(=O)O)cc1)c1ccc2[nH]ncc2c1)c1cccs1 [Compound 23, (E)-3-(4-((E)-1-(1H-Indazol-5-yl)-2-(thiophen-2-yl)but-1-en-1-yl)phenyl)acrylic acid]	++ (++ = a single % value ≧ 40%)
> 0.1	≥ 40	> 0.1	CC/C(=C(/c1ccc(/C=C/C(=O)O)cc1)c1ccc2c(c1)OCC(=O)N2)c1ccccc1 [Compound 107, (E)-3-(4-((E)-1-(3-Oxo-3,4-dihydro-2H-benzo[b][1,4]oxazin-7-yl)-2-phenylbut-1-en-1-yl)phenyl)acrylic acid]	++ (++ = a single % value ≧ 40%)
> 0.1	< 40	> 0.1	CC/C(=C(/c1ccc(/C=C/C(=O)O)cc1)c1ccc2[nH]ncc2c1)c1cncnc1 [Compound 220, (E)-3-(4-((E)-1-(1H-Indazol-5-yl)-2-(pyrimidin-5-yl)but-1-en-1-yl)phenyl)acrylic acid]	+ (+ = a single % value < 40%)
> 0.1	≥ 40	> 0.1	CC/C(=C(/c1ccc(/C=C/C(=O)O)cc1)c1ccc2[nH]ncc2c1)c1ccc(C(=O)NC)cc1F [Compound 213, (E)-3-(4-((E)-2-(2-Fluoro-4-(methylcarbamoyl)phenyl)-1-(1H-indazol-5-yl)but-1-en-1-yl)phenyl)acrylic acid]	+ (+ = a single % value < 40%)
≤ 0.1	≥ 40	≤ 0.1	CC/C(=C(/c1ccc(/C=C/C(=O)O)cc1)c1ccc2[nH]ncc2c1)c1cccc(Oc2ccc(C(F)(F)F)cn2)c1 [Compound 381, (E)-3-(4-((E)-1-(1H-Indazol-5-yl)-2-(3-((5-(trifluoromethyl)pyridin-2-yl)oxy)phenyl)but-1-en-1-yl)phenyl)acrylic acid]	++ (++ = a single % value ≧ 40%)
≤ 0.1	≥ 40	≤ 0.1	CC/C(=C(/c1ccc(/C=C/C(=O)O)cc1)c1ccc2[nH]ncc2c1F)c1cccc(Oc2cnccn2)c1 [Compound 377, (E)-3-(4-((E)-1-(4-Fluoro-1H-indazol-5-yl)-2-(3-(pyrazin-2-yloxy)phenyl)but-1-en-1-yl)phenyl)acrylic acid]	++ (++ = a single % value ≧ 40%)
≤ 0.1	≥ 40	≤ 0.1	CC/C(=C(/c1ccc(/C=C/C(=O)O)cc1)c1cccc2[nH]ncc12)c1ccccc1Cl [Compound 22, (E)-3-(4-((E)-2-(2-Chlorophenyl)-1-(1H-indazol-4-yl)but-1-en-1-yl)phenyl)acrylic acid]	++ (++ = a single % value ≧ 40%)
> 0.1	≥ 40	≤ 0.1	CC/C(=C(/c1ccc(/C=C/C(=O)O)cc1)c1ccc2[nH]ncc2c1)c1cc2ccccc2s1 [Compound 268, (E)-3-(4-((E)-2-(Benzo[b]thiophen-2-yl)-1-(1H-indazol-5-yl)but-1-en-1-yl)phenyl)acrylic acid]	++ (++ = a single % value ≧ 40%)
≤ 0.1	≥ 40	≤ 0.1	CC/C(=C(/c1ccc(/C=C/C(=O)NS(=O)(=O)c2ccccn2)cc1)c1ccc2[nH]ncc2c1)c1ccc(F)cc1Cl [Compound 432, (E)-3-(4-((E)-2-(2-Chloro-4-fluorophenyl)-1-(1H-indazol-5-yl)but-1-en-1-yl)phenyl)-N-(pyridin-2-ylsulfonyl)acrylamide]	++ (++ = a single % value ≧ 40%)
> 0.1	≥ 40	> 0.1	CC/C(=C(/c1ccc(/C=C/C(=O)O)cc1)c1ccc2c(cnn2-c2cccnc2)c1)c1ccccc1 [Compound 145, (E)-3-(4-((E)-2-Phenyl-1-(1-(pyridin-3-yl)-1H-indazol-5-yl)but-1-en-1-yl)phenyl)acrylic acid]	++ (++ = a single % value ≧ 40%)
